Experimental data as given in patent publication US8673914B2, “Use of phosphodiesterase inhibitors for treating multidrug resistance” (St. John's University, priority 2011, dated 2014).
Marks after values point to notes of the source that are not given here.

Columns and labels:
[1] = system: HEK/MRP7 cells; test: [^3H]-paclitaxel accumulation (Example 4); format: cell-based; conditions: for increase of intracellular accumulation of [^3H]-paclitaxel: 5 μM, 2 h
Method: (§1) The effect of PDE5 inhibitors on the intracellular accumulation of paclitaxel in HEK293-pcDNA3.1 and HEK/MRP7 cells was measured using [^3H]-paclitaxel. […] For efflux studies, the cells were treated the same as in the drug accumulation study, and then washed three times with ice-cold PBS, and suspended in fresh medium with or without PDE5 inhibitors. Aliquots were evenly collected at various time points (0, 30, 60, and 120 min). Samples from both accumulation and efflux experiments were washed with ice-cold PBS three times and placed in scintillation fluid, and the radioactivity was measured in a Packard TRI-CARB® 1900CA liquid scintillation analyzer from Packard Instrument Company, Inc. (Downers Grove, Ill.).

[2] = system: HEK/MRP7 cells; test: [^3H]-paclitaxel efflux (Example 4); format: cell-based; conditions: for percentage of intracellular [^3H]-paclitaxel: 5 μM PDE5 inhibitor; for accumulated [^3H]-paclitaxel remaining in cells: absence of PDE5 inhibitors
Method: as §1

[3] = system: KB-C2 cells (ABCB1); test: [^3H]-paclitaxel accumulation (Example 1); format: cell-based, human
Method: The intracellular accumulation of [^3H]-paclitaxel was measured as follows. […] Intracellular paclitaxel accumulation was measured by incubating cells with 0.1 μM [^3H]-paclitaxel for 2 h in the presence or absence of the reversal agents at 37° C. The cells were washed three times with ice-cold PBS, then suspended in fresh medium with or without reversal agents at 37° C. Aliquots of the extracellular medium (40 μl) were collected at various time points (0, 60, 120 min), and finally the cells were collected and lysed in 10 mM lysis buffer (pH 7.4, containing 1% Triton X-100 and 0.2% SDS). Each sample was placed in scintillation fluid and the radioactivity was measured in a Packard TRI-CARB1 1900CA liquid scintillation analyzer from Packard Instrument Company, Inc. (Downers Grove, Ill.).

[4] = system: KB-C2 (ABCB1); test: MTT cytotoxicity/reversal assay (Example 1); format: cell-based, human
Method: (§2) The KB-C2 and KB-3-1 were kindly provided by Dr. Akiyama (Kagoshima University, Japan). HEK293-pcDNA3.1 and wild-type HEK/ABCG2 transfected cells were established by selection with G418 after transfecting HEK293 with either (1) empty pcDNA3.1 vector or (2) pcDNA3.1 vector containing full length of ABCG2 coding arginine (R) at amino acid position 482, and were then cultured in a medium with 2 mg/ml of G418 (ABCG2-482-R2 cells). Similarly, the HEK/MRP1 (ABCC1) and HEK/ABCB1 cells were generated by transfecting the HEK293 cells with either the MRP1 expression vector or the ABCB1 expression vector. All of the cell lines were grown in Dulbecco's modified Eagle's medium (DMEM) supplemented with 10% bovine serum, 100 units/ml penicillin, and […] streptomycin in a humidified incubator containing 5% CO2 at 37° C.
(§3) The MTT assay was used to assess cytotoxicity. The cultured cells were harvested with trypsin and resuspended in a final concentration of 4×10^3 cells/well for KB-3-1; 7.5×10^3 cells/well for KB-C2; and 8×10^3 for all of the other cell lines used in this study. Cells were seeded evenly in 96-well multiplates. […] After 68 h of incubation, 20 μl of the MTT solution (4 mg/ml) was added to each well, and the plate was further incubated for 4 h at 37° C., allowing viable cells to convert the yellow-colored MTT into dark-blue formazan crystals. Subsequently, the medium was discarded, and 100 μl of DMSO was added into each well to dissolve the formazan crystals, generating purple color. The absorbance was determined at 570 nm by an OPSYS Microplate Reader from DYNEX Technologies, Inc. (Chantilly, Va.). […] The degree of the reversal of multidrug resistance (MDR) was calculated by dividing the IC50 of an anticancer drug, e.g., an antineoplastic or chemotherapeutic drug (agent, compound), in a cell type in the absence of a reversal agent by the IC50 of the anticancer drug in the same cell type in the presence of the reversal agent. The IC50 values were calculated from survival curves using the Bliss method.

[5] = system: KB-3-1; test: MTT cytotoxicity/reversal assay (Example 1); format: cell-based, human
Method: as §2, §3

[6] = system: HEK/ABCB1 (ABCB1); test: MTT cytotoxicity/reversal assay (Example 1); conditions: HEK/ABCB1
Method: The KB-C2 and KB-3-1 were kindly provided by Dr. Akiyama (Kagoshima University, Japan). […] Similarly, the HEK/MRP1 (ABCC1) and HEK/ABCB1 cells were generated by transfecting the HEK293 cells with either the MRP1 expression vector or the ABCB1 expression vector. All of the cell lines were grown in Dulbecco's modified Eagle's medium (DMEM) supplemented with 10% bovine serum, 100 units/ml penicillin, and […] streptomycin in a humidified incubator containing 5% CO2 at 37° C.
as §3

[7] = system: HEK293/pcDNA3.1; test: MTT cytotoxicity/reversal assay (Example 1); format: cell-based
Method: as §2, §3

[8] = system: HEK/MRP7; test: MTT cytotoxicity assay (Example 4); format: cell-based;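 further: drug IC50 in HEK/MRP7 divided by IC50 in parental HEK293-pcDNA3.1 cells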
Method: (§4) The MRP7 cDNA was generously provided by Dr. Gary Kruh (University of Illinois, Chicago, Ill.) and inserted into the pcDNA3.1 expression vector. […] Individual colonies were selected in medium containing G418 (1 mg/ml) and cultured for further analysis.
(§5) MTT colorimetric assay was performed to analyze the drug sensitivity as previously described (Shi et al. (2007) Cancer Res. 67:11012-20). HEK293-pcDNA3.1 and HEK/MRP7 cells were seeded into 96-well plates in triplicate at 6000 cells/well.
(§6) After drug incubation of 68 h, 20 μl MTT solution (4 mg/ml) was added into each well. […] The Bliss method was used to calculate the IC50 values according to survival curves.

[9] = system: HEK 293-pcDNA-3.1; test: MTT cytotoxicity assay (Example 4); format: cell-based; conditions: for fold-resistance, docetaxel / fold-resistance, paclitaxel / fold-resistance, vinblastine / fold-resistance, cisplatin: HEK 293-pcDNA-3.1
Method: as §4, §5, §6

[10] = HEK293/pcDNA3.1 (Table 6), +10 μM reversal agent
[11] = HEK293/pcDNA3.1, +5 μM reversal agent
[12] = HEK293/pcDNA3.1, +10 μM reversal agent

CCCc1nc(C)c2c(=O)[nH]c(-c3cc(S(=O)(=O)N4CCN(CC)CC4)ccc3OCC)nn12 [Vardenafil, vardenafil]
increase of intracellular accumulation of [^3H]-paclitaxel [1]: 3.7 fold
percentage of intracellular [^3H]-paclitaxel ([2]; 30 min): 95.34%
percentage of intracellular [^3H]-paclitaxel ([2]; 60 min): 93.58%
percentage of intracellular [^3H]-paclitaxel ([2]; 120 min): 63.92%
increase of intracellular accumulation of paclitaxel ([3]; 10 μM): 1.6 fold
fold reversal, cisplatin ([4]; +5 μM reversal agent): (0.87)
fold reversal, colchicine ([4]; +5 μM reversal agent): (27.6)
fold reversal, paclitaxel ([4]; +5 μM reversal agent): (26.2)
fold reversal, cisplatin ([4]; +10 μM reversal agent): (0.96)
fold reversal, colchicine ([4]; +10 μM reversal agent): (184.8)
fold reversal, paclitaxel ([4]; +10 μM reversal agent): (54.1)
fold reversal, cisplatin ([5]; +5 μM reversal agent): (0.89)
fold reversal, colchicine ([5]; +5 μM reversal agent): (0.90)
fold reversal, paclitaxel ([5]; +5 μM reversal agent): (0.89)
fold reversal, cisplatin ([5]; +10 μM reversal agent): (0.93)
fold reversal, colchicine ([5]; +10 μM reversal agent): (0.93)
fold reversal, paclitaxel ([5]; +10 μM reversal agent): (0.92)
fold reversal, cisplatin ([6]; +5 μM reversal agent): (0.95)
fold reversal, paclitaxel ([6]; +5 μM reversal agent): (3.86)
fold reversal, vincristine ([6]; +5 μM reversal agent): (4.10)
fold reversal, cisplatin ([6]; +10 μM reversal agent): (1.09)
fold reversal, paclitaxel ([6]; +10 μM reversal agent): (8.69)
fold reversal, vincristine ([6]; +10 μM reversal agent): (11.60)
fold reversal, vincristine [7, 10]: (0.92)
fold reversal, cisplatin [7, 11]: (1.06)
fold reversal, paclitaxel [7, 11]: (1.09)
fold reversal, vincristine [7, 11]: (0.88)
fold reversal, SN-38 [7, 12]: (1.10)
fold reversal, cisplatin [7, 12]: (1.00)
fold reversal, paclitaxel [7, 12]: (1.18)
fold reversal, vincristine [7, 12]: (1.19)
fold-resistance, docetaxel ([8]; +1.25 μM reversal agent): (5.56)
fold-resistance, paclitaxel ([8]; +1.25 μM reversal agent): (2.99)
fold-resistance, vinblastine ([8]; +1.25 μM reversal agent): (3.01)
fold-resistance, cisplatin ([8]; +5 μM reversal agent): (1.09)
fold-resistance, docetaxel ([8]; +5 μM reversal agent): (1.19)
fold-resistance, paclitaxel ([8]; +5 μM reversal agent): (1.06)
fold-resistance, vinblastine ([8]; +5 μM reversal agent): (1.11)
fold-resistance, docetaxel ([9]; +1.25 μM reversal agent): (1.0)
fold-resistance, paclitaxel ([9]; +1.25 μM reversal agent): (0.93)
fold-resistance, vinblastine ([9]; +1.25 μM reversal agent): (0.96)
fold-resistance, cisplatin ([9]; +5 μM reversal agent): (1.07)
fold-resistance, docetaxel ([9]; +5 μM reversal agent): (0.80)
fold-resistance, paclitaxel ([9]; +5 μM reversal agent): (0.79)
fold-resistance, vinblastine ([9]; +5 μM reversal agent): (0.85)

CC(=O)O[C@H]1C(=O)[C@@]2(C)[C@H]([C@H](OC(=O)c3ccccc3)[C@]3(O)C[C@H](OC(=O)[C@H](O)[C@@H](NC(=O)c4ccccc4)c4ccccc4)C(C)=C1C3(C)C)[C@]1(OC(C)=O)CO[C@@H]1C[C@@H]2O [Paclitaxel, paclitaxel]
intracellular concentration of [^3H]-paclitaxel relative to parental HEK293-pcDNA3.1 ([1]; no inhibitor): 28.5%
accumulated [^3H]-paclitaxel remaining in cells ([2]; 30 min): 62.43%
accumulated [^3H]-paclitaxel remaining in cells ([2]; 60 min): 39.47%
accumulated [^3H]-paclitaxel remaining in cells ([2]; 120 min): 23.44%
intracellular concentration of paclitaxel relative to parental KB-3-1 cells ([3]; no reversal agent): approximately 55%
fold reversal, paclitaxel ([4]; alone): (1.00)
fold reversal, paclitaxel ([5]; alone): (1.00)
fold reversal, paclitaxel ([6]; alone): (1.00)
fold reversal, paclitaxel ([7]; HEK293/pcDNA3.1, alone): (1.00)
fold-resistance, paclitaxel ([8]; alone): (9.21)
fold-resistance, paclitaxel ([9]; alone): (1.0)^b
IC50 ([9]; read-out: IC50 of paclitaxel): 11.6 ± 1.33 nM

CN1CC(=O)N2[C@H](c3ccc4c(c3)OCO4)c3[nH]c4ccccc4c3C[C@@H]2C1=O [Tadalafil, tadalafil]
increase of intracellular accumulation of [^3H]-paclitaxel [1]: 2.1 fold
percentage of intracellular [^3H]-paclitaxel ([2]; 30 min): 76.44%
percentage of intracellular [^3H]-paclitaxel ([2]; 60 min): 63.41%
percentage of intracellular [^3H]-paclitaxel ([2]; 120 min): 46.48%
effect on paclitaxel accumulation ([3]; 10 μM): had significant effects on paclitaxel accumulation
fold reversal, cisplatin ([4]; +5 μM reversal agent): (1.01)
fold reversal, colchicine ([4]; +5 μM reversal agent): (4.19)
fold reversal, paclitaxel ([4]; +5 μM reversal agent): (2.53)
fold reversal, cisplatin ([4]; +10 μM reversal agent): (0.93)
fold reversal, colchicine ([4]; +10 μM reversal agent): (6.38)
fold reversal, paclitaxel ([4]; +10 μM reversal agent): (4.48)
fold reversal, cisplatin ([5]; +5 μM reversal agent): (0.96)
fold reversal, colchicine ([5]; +5 μM reversal agent): (0.86)
fold reversal, paclitaxel ([5]; +5 μM reversal agent): (0.93)
fold reversal, cisplatin ([5]; +10 μM reversal agent): (1.06)
fold reversal, colchicine ([5]; +10 μM reversal agent): (0.89)
fold reversal, paclitaxel ([5]; +10 μM reversal agent): (1.02)
fold reversal, cisplatin ([6]; +5 μM reversal agent): (0.94)
fold reversal, paclitaxel ([6]; +5 μM reversal agent): (1.37)
fold reversal, vincristine ([6]; +5 μM reversal agent): (1.50)
fold reversal, cisplatin ([6]; +10 μM reversal agent): (1.09)
fold reversal, paclitaxel ([6]; +10 μM reversal agent): (2.26)
fold reversal, vincristine ([6]; +10 μM reversal agent): (2.45)
fold reversal, vincristine [7, 10]: (1.09)
fold reversal, cisplatin [7, 11]: (0.99)
fold reversal, paclitaxel [7, 11]: (0.99)
fold reversal, vincristine [7, 11]: (1.15)
fold reversal, SN-38 [7, 12]: (0.96)
fold reversal, cisplatin [7, 12]: (1.12)
fold reversal, paclitaxel [7, 12]: (1.21)
fold reversal, vincristine [7, 12]: (1.35)
fold-resistance, docetaxel ([8]; +1.25 μM reversal agent): (10.91)
fold-resistance, paclitaxel ([8]; +1.25 μM reversal agent): (8.06)
fold-resistance, vinblastine ([8]; +1.25 μM reversal agent): (4.58)
fold-resistance, cisplatin ([8]; +5 μM reversal agent): (1.12)
fold-resistance, docetaxel ([8]; +5 μM reversal agent): (8.35)
fold-resistance, paclitaxel ([8]; +5 μM reversal agent): (5.87)
fold-resistance, vinblastine ([8]; +5 μM reversal agent): (3.62)
fold-resistance, docetaxel ([9]; +1.25 μM reversal agent): (1.09)
fold-resistance, paclitaxel ([9]; +1.25 μM reversal agent): (1.07)
fold-resistance, vinblastine ([9]; +1.25 μM reversal agent): (1.06)
fold-resistance, cisplatin ([9]; +5 μM reversal agent): (1.11)
fold-resistance, docetaxel ([9]; +5 μM reversal agent): (1.02)
fold-resistance, paclitaxel ([9]; +5 μM reversal agent): (0.93)
fold-resistance, vinblastine ([9]; +5 μM reversal agent): (0.95)
